Test results: patent publication US20080045513A1, “C[…] INHIBITOR AND […], ANTI-INFLAMMATORY OR ANTI-PYRETIC AGENT” (N.V. Organon, priority 2006, published 2008)

Legend:
[1] = target: T1, FAAH (Homo sapiens, UniProt O00519); experiment: FAAH LC-MS/MS screening assay (anandamide hydrolysis by human liver microsomes); format: biochemical; conditions: for anandamide hydrolysis allowed (percent hydrolysis normalized to control): inhibitor at 30 nM, 60 minute incubation at 37° C.
T1 construct: 25 μL of human liver microsomes (31.3 μg); from tissue; host or cells: human liver microsomes
T1 sequence (O00519 1-579): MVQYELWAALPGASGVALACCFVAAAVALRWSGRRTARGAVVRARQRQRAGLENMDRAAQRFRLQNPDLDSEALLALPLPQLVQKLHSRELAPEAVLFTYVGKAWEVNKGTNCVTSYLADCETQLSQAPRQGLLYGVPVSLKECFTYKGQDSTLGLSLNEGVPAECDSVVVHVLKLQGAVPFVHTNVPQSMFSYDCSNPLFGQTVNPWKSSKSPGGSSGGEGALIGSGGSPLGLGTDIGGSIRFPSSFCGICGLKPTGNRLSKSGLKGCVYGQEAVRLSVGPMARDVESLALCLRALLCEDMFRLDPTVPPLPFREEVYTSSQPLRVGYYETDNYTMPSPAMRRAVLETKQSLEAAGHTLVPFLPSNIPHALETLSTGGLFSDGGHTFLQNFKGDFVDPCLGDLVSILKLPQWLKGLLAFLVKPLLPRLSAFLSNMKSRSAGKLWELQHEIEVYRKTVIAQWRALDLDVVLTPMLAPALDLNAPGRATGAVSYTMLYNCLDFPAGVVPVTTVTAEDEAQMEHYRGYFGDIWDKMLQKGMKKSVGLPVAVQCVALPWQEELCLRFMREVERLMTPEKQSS
Method: For determining IC50 values for candidate FAAH inhibitor compounds, the above method is used with an adjusted FAAH inhibitor concentration. In the IC50 assay, the FAAH inhibitor is added at a concentration range of approximately 3 μM to 0.03 nM. The final calculation of IC50 is determined by first transforming the concentrations by “X=log(X)” and then analyzing the data with a sigmoidal dose-response curve (no constraints) using GraphPad Prism version 4.00 for Windows (GraphPad Software, San Diego Calif. USA, www.graphpad.com).

[2] = system: CFA-induced mechanical hyperalgesia in rats; experiment: Complete Freund's Adjuvant (CFA)-induced mechanical hyperalgesia (paw withdrawal threshold); format: in vivo, male Wistar rats; conditions: 60 mg/kg, p.o.; 24 h after intraplantar CFA; reading 2 h post drug administration
Method: In this rat model of inflammatory pain, inflammation is induced by intraplantar injection of complete Freund's adjuvant (CFA) into the hind paw. The associated mechanical hyperalgesia is quantified by measuring the reduction in paw withdrawal threshold (PWT) to a mechanical compression of the paw.
Experiments were conducted using male Wistar rats weighing 130-180 g. In brief, the rats' paw withdrawal threshold (PWT) to a mechanical compression of the hind paw was measured (baseline reading) using a Randall-Sellito apparatus (Ugo Basile). A cut-off of 200 g was employed to minimise tissue damage to the paw. The animals were then briefly anaesthetised with isoflurane (˜2%) and complete Freund's adjuvant (0.1 ml per paw) was injected subcutaneously (s.c.) into the plantar surface of the left hind paw. The animals were then returned to their home cage and left for the inflammation to develop.
Twenty four hours after CFA injection, PWT's were re-measured (0 min); only those animals developing hyperalgesia (>20 g decrease in PWT compared to their baseline readings) were included for drug assessment. Rats were then dosed orally with either vehicle or test compound. Readings were then made at 2 h post drug administration.

[3] = Pharmacokinetics in rats following oral administration as a suspension; blood concentrations of compound, acetaminophen and fatty acid ethanolamides; format: in vivo; conditions: 10 mg/kg oral gavage
Method: Potential FAAH inhibitors are formulated for oral (p.o.), intraperitoneal (i.p.) or intravenous (i.v.) delivery to rats. Formulated compounds are administered and the animals were sacrificed at pre-determined time points post dose. At sacrifice, blood samples are collected into EDTA plasma tubes and whole brains were snap frozen in liquid nitrogen. EDTA plasma was isolated from blood samples after centrifugation. Brain and plasma samples are stored at −80° C. prior to analysis. All samples (brain and plasma) are analyzed for the concentrations of test compound (FAAH inhibitor), metabolites of the test compound (such as, for example, acetaminophen, propofol, NSAID, or NSAID metabolite) and endogenous fatty acid ethanolamide levels (including anandamide, oleoylethanolamide, and palmitoylethanolamide) by LC-MS/MS according to the invention. Levels of these compounds are compared across time points to determine pharmacokinetic properties of the test compound and partial pharmacological effects of inhibiting FAAH activity (including changes of fatty acid ethanolamide levels).
The pharmacokinetic properties of 4-acetamidophenyl cyclohexylnethylcarbamate were assessed in rats following oral administration as a suspension. […] The suspension of 4-acetamidophenyl cyclohexylmethylcarbamate was administered to rats at a dose of 10 mg/kg of 4-acetamidophenyl cyclohexylmethylcarbamate via oral gavage. Blood samples were extracted from the rats. Samples were analyzed for concentrations of OEA, PEA, AEA, 4-acetamidophenyl cyclohexylmethylcarbamate and acetaminophen (in-vivo metabolite). Baseline levels of OEA and PEA were 4.18 and 4.17 ng/mL, respectively.

Structure (SMILES) | anandamide hydrolysis allowed (percent hydrolysis normalized to control) [1] [%] | reversal of mechanical hyperalgesia [2] | AUC of AEA [3] [ng·h/mL] | Tmax of AEA [3] [h] | Tmax of OEA [3] [min] | Tmax of PEA [3] [min] | AUC of OEA ([3]; baseline OEA 4.18 ng/mL) [ng·h/mL] | Cmax of OEA ([3]; baseline OEA 4.18 ng/mL) [ng/mL] | AUC of PEA ([3]; baseline PEA 4.17 ng/mL) [ng·h/mL] | Cmax of PEA ([3]; baseline PEA 4.17 ng/mL) [ng/mL] | AUC ([3]; rat, plasma, suspension) [ng·h/mL] | Cmax ([3]; rat, plasma, suspension) [ng/mL] | Tmax ([3]; rat, plasma, suspension) [min] | IC50 ([1]; inhibitor range approximately 3 μM to 0.03 nM) [nM]
NC(=O)c1cccc(-c2cccc(OC(=O)NC3CCCCC3)c2)c1 [reference compound] | 30 | – | – | – | – | – | – | – | – | – | – | – | – | –
CC(=O)Nc1ccc(OC(=O)NCC2CCCCC2)cc1 [4-acetamidophenyl cyclohexylmethylcarbamate] | 37 | complete reversal | 0 | 0 | 90 | 60 | 40 | 7.55 | 43 | 8.85 | 6780 | 7740 | 30 | 14.6
CC(=O)Nc1ccc(OC(=O)NC2CCCCC2)cc1 [4-acetamidophenyl cyclohexylcarbamate] | 56 | – | – | – | – | – | – | – | – | – | – | – | – | –
